One test concerns MT4. Kind of test: Compound was tested for antiviral activity against HIV-IIIB in MT-4 cells in presence of 50% human serum. The class given is functional, cell-based.
Test [1] addresses Human immunodeficiency virus type 1 protease (Human immunodeficiency virus 1) (UniProt Q72874). Put plainly: Inhibition of HIV protease at 0.5 nM.

`COc1cccc(OC)c1OCC(=O)N[C@H](Cc1ccccc1)[C@H](O)C[C@@H](Cc1ccccc1)NC(=O)[C@@H](C(C)C)N1CCCNC1=O`: the half-maximal effective concentration (EC50) with MT4 is 14000 nM. The same compound showed an inhibition in test [1] of 38%.

For `Cc1cccc(C)c1OCC(=O)N[C@@H](Cc1ccccc1)[C@@H](O)C[C@H](Cc1ccccc1)NC(=O)[C@H](C(C)C)N1CCCNC1=O` (single isomer, unassigned) [LOPINAVIR], in the test on MT4, the EC50 was 100 nM.

Turning to `Cc1cc(C)cc(OCC(=O)N[C@H](Cc2ccccc2)[C@H](O)C[C@@H](Cc2ccccc2)NC(=O)[C@@H](C(C)C)N2CCCNC2=O)c1`, the concentration for a half-maximal effect (EC50) in the test on MT4 is 38000 nM. Further, in test [1], the inhibition came out at 37%.

For the compound `Cc1ccccc1OCC(=O)N[C@H](Cc1ccccc1)[C@H](O)C[C@@H](Cc1ccccc1)NC(=O)[C@@H](C(C)C)N1CCCNC1=O`, the EC50 in the test on MT4 was 430 nM. In addition, in test [1], the inhibition turned out to be 84%.

Regarding `CC(C)[C@H](C(=O)N[C@H](Cc1ccccc1)C[C@@H](O)[C@@H](Cc1ccccc1)NC(=O)COc1c(Cl)cccc1Cl)N1CCCNC1=O`, the EC50 in the test with MT4 was determined as 2800 nM. The inhibition in test [1] was found to be 87%.

With `Cc1cc(N)cc(C)c1OCC(=O)N[C@H](Cc1ccccc1)[C@H](O)C[C@@H](Cc1ccccc1)NC(=O)[C@@H](C(C)C)N1CCCNC1=O`, the concentration for a half-maximal effect (EC50) with MT4 is 160 nM. Moreover, the inhibition in test [1] was found to be 86%.

With `CC(C)[C@H](C(=O)N[C@H](Cc1ccccc1)C[C@@H](O)[C@@H](Cc1ccccc1)NC(=O)COc1ccccc1)N1CCCNC1=O`, the half-maximal effective concentration (EC50) with MT4 worked out at 1300 nM. The inhibition in test [1] was determined as 67%.

For `Cc1cc(F)cc(C)c1OCC(=O)N[C@H](Cc1ccccc1)[C@H](O)C[C@@H](Cc1ccccc1)NC(=O)[C@@H](C(C)C)N1CCCNC1=O`, the EC50 with MT4 was determined as 490 nM. Further, the inhibition in test [1] came out at 90%.

`Cc1ccnc(C)c1OCC(=O)N[C@H](Cc1ccccc1)[C@H](O)C[C@@H](Cc1ccccc1)NC(=O)[C@@H](C(C)C)N1CCCNC1=O`: the EC50 in the test with MT4 came out at 770 nM. The inhibition in test [1] was 75%.

Take `Cc1ncnc(C)c1OCC(=O)N[C@H](Cc1ccccc1)[C@H](O)C[C@@H](Cc1ccccc1)NC(=O)[C@@H](C(C)C)N1CCCNC1=O`: the EC50 with MT4 turned out to be 4200 nM. For the same compound, the inhibition in test [1] amounted to 79%.

On to `Cc1cccc(C)c1SCC(=O)N[C@H](Cc1ccccc1)[C@H](O)C[C@@H](Cc1ccccc1)NC(=O)[C@@H](C(C)C)N1CCCNC1=O`, for which the EC50 with MT4 stood at 4100 nM. The same compound yielded an inhibition in test [1] of 55%.

Consider `Cc1cccc(C)c1CCC(=O)N[C@H](Cc1ccccc1)[C@H](O)C[C@@H](Cc1ccccc1)NC(=O)[C@@H](C(C)C)N1CCCNC1=O`, for which the EC50 in the test with MT4 worked out at 2600 nM. Moreover, the inhibition in test [1] was found to be 70%.

As for `Cc1cc(C)c(OCC(=O)N[C@H](Cc2ccccc2)[C@H](O)C[C@@H](Cc2ccccc2)NC(=O)[C@@H](C(C)C)N2CCCNC2=O)c(C)c1`, the EC50 in the test on MT4 was found to be 390 nM. In test [1], this compound returned an inhibition of 85%.

For the origin of these results see ChEMBL document CHEMBL1135285, “Synthesis and structure-activity relationships of a novel series of HIV-1 protease inhibitors encompassing ABT-378 (Lopinavir)” (Bioorg Med Chem Lett, 2002).
